In EP4744648A1, “LIPOPEPTIDE-CONTAINING FAT-DISSOLVING PRODUCT, AND PREPARATION METHOD THEREFOR AND USE THEREOF” (Bloomage Biotechnology Corporation Limited, priority 2023, dated 2024):

How the values were obtained:
[1] = tested on: Mouse adipocyte cell line 3T3-F442A; experiment: In vitro cytotoxicity test: relative growth rate of cells by CCK-8; assay type: cell-based
Procedure: In accordance with GB/T 16886.5 Biological evaluation of medical devices-Part 5: In vitro cytotoxicity tests (GB/T 16886.5-2017/ISO 10993-5:2009, IDT), and the test was performed with reference to the methods specified therein. The detailed experimental procedures are as follows:
Mouse adipocyte cell line 3T3-F442A in the logarithmic growth phase was seeded into a 96-well plate at a density of 1×10^5 cells/mL, with 100 µL per well. The culture medium consisted of a basal culture medium supplemented with 10% fetal bovine serum. The seeded cells were incubated conventionally in a carbon dioxide incubator at 37°C and 5% CO2 for 24 h.
The solution was freshly prepared before use.
After routine incubation for 24 h, the old culture medium was discarded, and then 100 µL of sample solution was added to replace it in the experimental group. An equal volume of serum-free culture medium was added to the normal control group. Each concentration was set up with at least three replicate wells.
After another incubation for 24 h, the relative growth rate of cells was detected by CCK-8. The culture medium was discarded, 100 µL of CCK-8 diluted 10-fold with the serum-free medium was added to each well. The plate was incubated in a cell incubator for another 2 h. The absorbance was determined using a microplate reader at a wavelength of 450 nm. The relative growth rate (RGR) is a ratio of the absorbance of the experimental group to the absorbance of the normal control group.
The experimental procedures in Example 3 were the same as those in Example 2 except that treatment durations were 0.5 h, 4 h and 24 h. The determination results of the relative growth rates of 3T3-F442A cells treated with surfactin HXRZ and sodium deoxycholate for different durations are shown in Table 3. Table 3 Relative growth rate (%)
3T3-F442A mouse adipocytes in the logarithmic growth phase were seeded into a 96-well plate at a density of 1 × 10^5 cells/mL, with 100 µL per well. After incubation for 24 h, the culture medium was replaced with 100 µL of culture medium containing different concentrations of samples. An equal volume of serum-free culture medium was added to the blank control group, and the incubation was continued for another 24 h. The relative growth rate of cells was determined by CCK-8. The blank control was set as 100%, the relative growth rate and half inhibitory concentration of each group were calculated. The method was the same as that in Example 2.

[2] = tested on: transgenic obese (ob/ob) mice; experiment: Degradation of gluteal adipose tissue after injection into adipose pads of the left buttock (H-E sections, site observation); assay type: in vivo; details: Example 4, 1 %
Procedure: 6-week-old transgenic obese (ob/ob) mice were used as the animal model. Different drugs were injected into the adipose pads of the left buttock. The mice were totally divided into three groups with 7-10 mice per group, as specified below. • 1) Negative control group: injected with 200 µL of sterile normal saline; • 2) 1% sodium deoxycholate group: injected with 200 µL of sterile normal saline solution containing 1% sodium deoxycholate; • 3) 0.1% surfactin HXRZ group: injected with 200 µL of sterile normal saline solution containing 0.1% surfactin HXRZ.
The day of the first administration was defined as Day 1 of the experiment. Additional administrations were performed on Day 3 and Day 5, respectively. The general condition and administration sites of the mice were observed regularly throughout the experiment. On Day 21 of the experiment, the mice were sacrificed and dissected. The adipose tissue of the left buttock was isolated, fixed immediately in adipose tissue fixative, and then embedded in paraffin. The adipose tissue was stained by hematoxylin and eosin staining for pathological examination, followed by observation and analysis under an optical microscope.
Specifically, 6-week-old transgenic obese (ob/ob) mice were used as the animal model, with one mouse per group. 200 µL each of 0.5% and 1% surfactin HXRZ normal saline solutions (test samples) were injected into the adipose pads of the left buttock, respectively. The day of the first administration was defined as Day 1 of the experiment. Additional administrations were performed on Day 3 and Day 5, respectively. The general condition and administration sites of the mice were observed regularly throughout the experiment. On Day 21 of the experiment, the mice were sacrificed and dissected. The adipose tissue of the left buttock of the mice was isolated, fixed immediately in adipose tissue fixative, and then embedded in paraffin. The adipose tissue was stained by hematoxylin and eosin staining for pathological examination, followed by observation and analysis under an optical microscope.

Female Kunming mice = experiment: Animal experiment comparing surfactin-C14 and surfactin-C15: subcutaneous injection in right inguinal region, four administrations; assay type: in vivo
From the text: The higher drug concentration indicated the more obvious effect.

Kunming mice [3] = experiment: Efficacy and side effects on degradation of inguinal adipose tissue, subcutaneous injection once every 14 days; assay type: in vivo; details: 1 %; for Adipocyte density (n/mm^2): day 42, M±SEM
Procedure: The adipocyte density was then calculated.
Table 6 Local inflammation in mice of each group

[4] = Surface tension at serial dilutions (CMC value determination), automatic interfacial tensiometer; assay type: physicochemical
Procedure: A 0.1% surfactin HXRZ solution and a sodium deoxycholate solution were separately prepared using purified water, followed by serial dilution to obtain different gradient concentrations. The surface tensions at different concentrations were determined respectively via a JZ-200A automatic interfacial tensiometer. Table 1 CMC value determination results

Kunming mice [5] = experiment: Preliminary study on degradation of inguinal adipose tissue, subcutaneous injection once every 7 days; assay type: in vivo; details: for ulceration at the administration sites: 200 µL s.c. left inguinal, after two administrations, n = 3
Procedure: Administration was performed once every 7 days. […] 7-9.

[6] = tested on: Mouse adipocyte cell line 3T3-F442A; experiment: In vitro cytotoxicity test: relative growth rate of cells by CCK-8; assay type: cell-based; details: 0.5 mg/mL
[7] = Observation of solubility in water; assay type: physicochemical; details: added to water; room temperature
[8] = 10 mg/mL, four administrations, H-E sections

## Sodium deoxycholate
[1]; 0.5 mg/mL
  treatment time at which adipocytes were completely lysed: 0.5 h
[1]; 3T3-F442A adipocytes, 24 h, calculated from Table 2 curves
  half maximal inhibitory concentrations IC50: 260.5 mg/L
[1]; Example 2, 0.125 mg/mL, 24 h, 3T3-F442A
  Relative growth rate (%): 98.64±1.74%
[1]; Example 2, 0.25 mg/mL, 24 h, 3T3-F442A
  Relative growth rate (%): 55.58±3.66%
[1]; Example 2, 0.3 mg/mL, 24 h, 3T3-F442A
  Relative growth rate (%): 23.83±3.45%
[1]; Example 2, 0.4 mg/mL, 24 h, 3T3-F442A
  Relative growth rate (%): 10.92±0.48%
[1]; Example 2, 0.5 mg/mL, 24 h, 3T3-F442A
  Relative growth rate (%): 10.7±0.11%
[1]; Example 3, 0.3 mg/mL, 0.5 h
  Relative growth rate (%): 71.17±4.00%
[1]; Example 3, 0.3 mg/mL, 4 h
  Relative growth rate (%): 61.46±9.30%
[1]; Example 3, 0.3 mg/mL, 24 h
  Relative growth rate (%): 10.70±3.45%
[1]; Example 3, 0.4 mg/mL, 0.5 h
  Relative growth rate (%): 28.78±6.59%
[1]; Example 3, 0.4 mg/mL, 4 h
  Relative growth rate (%): 23.81±1.24%
[1]; Example 3, 0.4 mg/mL, 24 h
  Relative growth rate (%): 10.92±0.48%
[1]; Example 3, 0.5 mg/mL, 0.5 h
  Relative growth rate (%): 12.78±0.67%
[1]; Example 3, 0.5 mg/mL, 4 h
  Relative growth rate (%): 17.24±0.02%
[1]; Example 3, 0.5 mg/mL, 24 h
  Relative growth rate (%): 10.69±0.11%
[2]; 200 µL in normal saline, left buttock, Days 1, 3, 5, Day 21
  degradation of adipose tissue at the administration sites (H-E sections, FIG. 5): induced the degradation of adipose tissue at the administration sites
[2]; 200 µL, 7-10 mice per group
  mice with obvious induration palpable at the administration sites: three
  mice with ulceration at the administration site: one
Female Kunming mice; 10 mg/mL, 200 µL s.c.
  Incidence of local adverse reactions, Fourth administration: 83.33%
  Incidence of local adverse reactions, Second administration: 75.00%
  Incidence of local adverse reactions, Third administration: 66.67%
Female Kunming mice; 10 mg/mL, 200 µL s.c., percentage of mice with abnormalities at the administration site
  Incidence of local adverse reactions, First administration: 62.50%
Female Kunming mice; 10 mg/mL, four administrations
  Mean wet adipose tissue weight/body weight percentage (x±SEM, %): 0.57±0.05 %
Female Kunming mice; 10 mg/mL, four administrations once every 14 days, right inguinal
  Mean wet adipose tissue weight (x±SEM, unit: g): 0.224 ± 0.022 g
Female Kunming mice; [8]
  Mean adipocyte area (x±SEM, mm^2): 0.003751±0.000614 mm^2
  Mean adipocyte density (x±SEM, n/mm^2): 322.3211±55.3047 n/mm^2
Female Kunming mice; over all four administrations, except first administration in the HXRZ-B high-dose group
  incidence of adverse reactions: exceeded 60%
Kunming mice [3]; 200 µL s.c. left inguinal, once every 14 days, day 42, n = 9
  Adipose tissue weight: 0.1889 ± 0.0270 g
Kunming mice [3]; 200 µL s.c.
  Adipocyte density (n/mm^2): 727.84±56.64 n/mm^2
Kunming mice [3]; 200 µL s.c., listed as sodium deoxycholate
  Adipocyte density (n/mm^2): 727.84±56.64 n/mm^2
Kunming mice [3]; 200 µL s.c., day 42, treated-side inguinal adipose weight/body weight × 100%
  Fat index (%): 0.49±0.07 %
Kunming mice [3]; Day 1, number of mice (n = 9)
  Subcutaneous nodule and induration: 0
  Ulceration: 0
Kunming mice [3]; Day 7, number of mice (n = 9)
  Subcutaneous nodule and induration: 0
  Ulceration: 2
Kunming mice [3]; Day 14, number of mice (n = 9)
  Subcutaneous nodule and induration: 2
  Ulceration: 0
Kunming mice [3]; Day 21, number of mice (n = 9)
  Subcutaneous nodule and induration: 8
  Ulceration: 0
Kunming mice [3]; Day 28, number of mice (n = 9)
  Subcutaneous nodule and induration: 5
  Ulceration: 0
Kunming mice [3]; Day 35, number of mice (n = 9)
  Subcutaneous nodule and induration: 4
  Ulceration: 0
Kunming mice [3]; Day 42, number of mice (n = 9)
  Subcutaneous nodule and induration: 4
  Ulceration: 0
Kunming mice [3]; entire administration cycle
  ulceration at the administration sites over the administration cycle: ulceration was observed at the administration sites
[4]; solution concentration 0.00078125 % in purified water
  Surface tension value: 68.51 mN/m
[4]; solution concentration 0.0015625 % in purified water
  Surface tension value: 66.57 mN/m
[4]; solution concentration 0.003125 % in purified water
  Surface tension value: 65.06 mN/m
[4]; solution concentration 0.00625 % in purified water
  Surface tension value: 63.17 mN/m
[4]; solution concentration 0.0125 % in purified water
  Surface tension value: 60.50 mN/m
[4]; solution concentration 0.025 % in purified water
  Surface tension value: 57.94 mN/m
[4]; solution concentration 0.05 % in purified water
  Surface tension value: 55.40 mN/m
[4]; solution concentration 0.1 % in purified water
  Surface tension value: 53.47 mN/m
[4]; solution concentration 0.1 % in purified water, listed as sodium deoxycholate
  Surface tension value: 53 mN/m
Kunming mice [5]; 1 %
  ulceration at the administration sites: visible ulceration was observed at the administration sites
Kunming mice [5]; 1 %, after a 7-day administration interval
  healing of ulceration: healed completely
Kunming mice [5]; 2 %
  ulceration at the administration sites: ulceration occurred at the administration sites in all mice
Kunming mice [5]; 2 %, within the subsequent 7 days
  healing of ulcers: failed to heal
[6]; 4 h
  cell morphology of adipocytes (inverted microscope, FIG. 4): nearly all cells died
[6]; 24 h
  cell morphology of adipocytes (inverted microscope, FIG. 4): nearly all cells died
[7]
  solubility in water: poorly soluble
